# Experimental data from US9340559B2, “Proteasome inhibitor delanzomib for use in the treatment of lupus” (Cephalon, Inc., priority 2011, dated 2016).
# Where two headings read alike, the source gives them in different places.
# What was measured:
# Format in all cases: in vivo, mouse
# [1] = test system: NZM mice
# [2] = test system: NZM mice; assay: Splenomegaly (spleen mass), NZM mice (Example 2)
# [3] = test system: NZM mice; assay: Antinuclear antibody (ANA) ELISA (anti-chromatin, anti-Smith Ag, anti-dsDNA), serum of NZM mice (Example 2)
compound,measurement,setting,value
"CC(C)C[C@H](NC(=O)[C@@H](NC(=O)c1cccc(-c2ccccc2)n1)[C@@H](C)O)B(O)O [COMPOUND A, [(1R)-1-[[(2S,3R)-3-hydroxy-2-[6-phenyl-pyridine-2-carbonyl)amino]-1-oxobutyl]amino]-3-methylbutylboronic acid]","p, serum IP-10 concentration vs G9 Vehicle 1× wk ip",[1]; G1 3 mg/kg 1× wk ip,NS (NS = not significant (p > 0.05))
same,"p, serum MIG concentration vs G5 Bortezomib 0.3 mg/kg 1× wk ip",[1]; G1 3 mg/kg 1× wk ip,NS (NS = not significant (p > 0.05))
same,"p, serum MIG concentration vs G6 Bortezomib 0.3 mg/kg 2× wk ip",[1]; G1 3 mg/kg 1× wk ip,NS (NS = not significant (p > 0.05))
same,"p, serum MIG concentration vs G7 CTX 50 mg/kg 1× wk ip",[1]; G1 3 mg/kg 1× wk ip,p < 0.001
same,"p, serum MIG concentration vs G8 Dex 1.5 mg/kg 3× wk ip",[1]; G1 3 mg/kg 1× wk ip,NS (NS = not significant (p > 0.05))
same,"p, serum MIG concentration vs G9 Vehicle 1× wk ip",[1]; G1 3 mg/kg 1× wk ip,NS (NS = not significant (p > 0.05))
same,"p, serum TNFα concentration vs G5 Bortezomib 0.3 mg/kg 1× wk ip",[1]; G1 3 mg/kg 1× wk ip,NS (NS = not significant (p > 0.05))
same,"p, serum TNFα concentration vs G6 Bortezomib 0.3 mg/kg 2× wk ip",[1]; G1 3 mg/kg 1× wk ip,NS (NS = not significant (p > 0.05))
same,"p, serum TNFα concentration vs G7 CTX 50 mg/kg 1× wk ip",[1]; G1 3 mg/kg 1× wk ip,NS (NS = not significant (p > 0.05))
same,"p, serum TNFα concentration vs G8 Dex 1.5 mg/kg 3× wk ip",[1]; G1 3 mg/kg 1× wk ip,p <0.001
same,"p, serum TNFα concentration vs G9 Vehicle 1× wk ip",[1]; G1 3 mg/kg 1× wk ip,NS (NS = not significant (p > 0.05))
same,"Cytokine IL-12 AUC, percent change vs vehicle","[1]; G1 3 mg/kg ip, 1× wk",−83%
same,"Cytokine IL-13 AUC, percent change vs vehicle","[1]; G1 3 mg/kg ip, 1× wk",−27%
same,"Cytokine IL-17A AUC, percent change vs vehicle","[1]; G1 3 mg/kg ip, 1× wk",−41%
same,"Cytokine IP-10 AUC, percent change vs vehicle","[1]; G1 3 mg/kg ip, 1× wk",+17%
same,"Cytokine MIG AUC, percent change vs vehicle","[1]; G1 3 mg/kg ip, 1× wk",−55%
same,"Cytokine TNFα AUC, percent change vs vehicle","[1]; G1 3 mg/kg ip, 1× wk",−61%
same,serum IL-12p40/p70 decrease vs vehicle,[1]; G1: 3 mg/kg ip once per week,83%
same,"p, serum IL-12p40/p70 concentration vs G5 Bortezomib 0.3 mg/kg 1× wk ip",[1]; G2 3 mg/kg 2× wk ip,NS (NS = not significant (p > 0.05))
same,"p, serum IL-12p40/p70 concentration vs G6 Bortezomib 0.3 mg/kg 2× wk ip",[1]; G2 3 mg/kg 2× wk ip,NS (NS = not significant (p > 0.05))
same,"p, serum IL-12p40/p70 concentration vs G7 CTX 50 mg/kg 1× wk ip",[1]; G2 3 mg/kg 2× wk ip,NS (NS = not significant (p > 0.05))
same,"p, serum IL-12p40/p70 concentration vs G8 Dex 1.5 mg/kg 3× wk ip",[1]; G2 3 mg/kg 2× wk ip,NS (NS = not significant (p > 0.05))
same,"p, serum IL-12p40/p70 concentration vs G9 Vehicle 1× wk ip",[1]; G2 3 mg/kg 2× wk ip,p < 0.01
same,"p, serum IL-13 concentration vs G5 Bortezomib 0.3 mg/kg 1× wk ip",[1]; G2 3 mg/kg 2× wk ip,NS (NS = not significant (p > 0.05))
same,"p, serum IL-13 concentration vs G6 Bortezomib 0.3 mg/kg 2× wk ip",[1]; G2 3 mg/kg 2× wk ip,NS (NS = not significant (p > 0.05))
same,"p, serum IL-13 concentration vs G7 CTX 50 mg/kg 1× wk ip",[1]; G2 3 mg/kg 2× wk ip,P < 0.001
same,"p, serum IL-13 concentration vs G8 Dex 1.5 mg/kg 3× wk ip",[1]; G2 3 mg/kg 2× wk ip,NS (NS = not significant (p > 0.05))
same,"p, serum IL-13 concentration vs G9 Vehicle 1× wk ip",[1]; G2 3 mg/kg 2× wk ip,NS (NS = not significant (p > 0.05))
same,"p, serum IL-17A concentration vs G5 Bortezomib 0.3 mg/kg 1× wk ip",[1]; G2 3 mg/kg 2× wk ip,NS (NS = not significant (p > 0.05))
same,"p, serum IL-17A concentration vs G6 Bortezomib 0.3 mg/kg 2× wk ip",[1]; G2 3 mg/kg 2× wk ip,NS (NS = not significant (p > 0.05))
same,"p, serum IL-17A concentration vs G7 CTX 50 mg/kg 1× wk ip",[1]; G2 3 mg/kg 2× wk ip,p < 0.001
same,"p, serum IL-17A concentration vs G8 Dex 1.5 mg/kg 3× wk ip",[1]; G2 3 mg/kg 2× wk ip,NS (NS = not significant (p > 0.05))
same,"p, serum IL-17A concentration vs G9 Vehicle 1× wk ip",[1]; G2 3 mg/kg 2× wk ip,NS (NS = not significant (p > 0.05))
same,"p, serum IP-10 concentration vs G5 Bortezomib 0.3 mg/kg 1× wk ip",[1]; G2 3 mg/kg 2× wk ip,NS (NS = not significant (p > 0.05))
same,"p, serum IP-10 concentration vs G6 Bortezomib 0.3 mg/kg 2× wk ip",[1]; G2 3 mg/kg 2× wk ip,NS (NS = not significant (p > 0.05))
same,"p, serum IP-10 concentration vs G7 CTX 50 mg/kg 1× wk ip",[1]; G2 3 mg/kg 2× wk ip,p < 0.001
same,"p, serum IP-10 concentration vs G8 Dex 1.5 mg/kg 3× wk ip",[1]; G2 3 mg/kg 2× wk ip,NS (NS = not significant (p > 0.05))
same,"p, serum IP-10 concentration vs G9 Vehicle 1× wk ip",[1]; G2 3 mg/kg 2× wk ip,NS (NS = not significant (p > 0.05))
same,"p, serum MIG concentration vs G5 Bortezomib 0.3 mg/kg 1× wk ip",[1]; G2 3 mg/kg 2× wk ip,NS (NS = not significant (p > 0.05))
same,"p, serum MIG concentration vs G6 Bortezomib 0.3 mg/kg 2× wk ip",[1]; G2 3 mg/kg 2× wk ip,NS (NS = not significant (p > 0.05))
same,"p, serum MIG concentration vs G7 CTX 50 mg/kg 1× wk ip",[1]; G2 3 mg/kg 2× wk ip,p < 0.001
same,"p, serum MIG concentration vs G8 Dex 1.5 mg/kg 3× wk ip",[1]; G2 3 mg/kg 2× wk ip,NS (NS = not significant (p > 0.05))
same,"p, serum MIG concentration vs G9 Vehicle 1× wk ip",[1]; G2 3 mg/kg 2× wk ip,NS (NS = not significant (p > 0.05))
same,"p, serum TNFα concentration vs G5 Bortezomib 0.3 mg/kg 1× wk ip",[1]; G2 3 mg/kg 2× wk ip,NS (NS = not significant (p > 0.05))
same,"p, serum TNFα concentration vs G6 Bortezomib 0.3 mg/kg 2× wk ip",[1]; G2 3 mg/kg 2× wk ip,NS (NS = not significant (p > 0.05))
same,"p, serum TNFα concentration vs G7 CTX 50 mg/kg 1× wk ip",[1]; G2 3 mg/kg 2× wk ip,NS (NS = not significant (p > 0.05))
same,"p, serum TNFα concentration vs G8 Dex 1.5 mg/kg 3× wk ip",[1]; G2 3 mg/kg 2× wk ip,p <0.001
same,"p, serum TNFα concentration vs G9 Vehicle 1× wk ip",[1]; G2 3 mg/kg 2× wk ip,NS (NS = not significant (p > 0.05))
same,"Cytokine IL-12 AUC, percent change vs vehicle","[1]; G2 3 mg/kg ip, 2× wk",−67%
same,"Cytokine IL-13 AUC, percent change vs vehicle","[1]; G2 3 mg/kg ip, 2× wk",−33%
same,"Cytokine IL-17A AUC, percent change vs vehicle","[1]; G2 3 mg/kg ip, 2× wk",−89%
same,"Cytokine IP-10 AUC, percent change vs vehicle","[1]; G2 3 mg/kg ip, 2× wk",−30%
same,"Cytokine MIG AUC, percent change vs vehicle","[1]; G2 3 mg/kg ip, 2× wk",−66%
same,"Cytokine TNFα AUC, percent change vs vehicle","[1]; G2 3 mg/kg ip, 2× wk",−57%
same,serum IL-12p40/p70 decrease vs vehicle,[1]; G2: 3 mg/kg ip twice weekly,67%
same,serum TNFα compared to Dex,"[1]; both once and twice weekly doses, p<0.001",decreased serum TNFα over that of Dex
same,"serum IL-12 decrease vs vehicle, range over the substance's groups",[1]; once and twice weekly groups,67-83%
same,serum CXCL9/MIG as compared to CTX,"[1]; p<0.001 vs CTX, but not to DEX",decreased
same,IL-13 serum levels compared to vehicle,[1]; treatment groups,No significant change
same,IL-17A serum levels compared to vehicle,[1]; treatment groups,No significant change
same,serum CXCL10/IP-10 decrease vs vehicle,[1]; twice weekly dose,30%
same,"Spleen mass EOS, percent change vs vehicle","[2]; G1 3 mg/kg ip, 1× wk",−37%
same,splenomegaly decrease vs vehicle at EOS,[2]; G1: 3 mg/kg ip once per week,37%
same,"Spleen mass EOS, percent change vs vehicle","[2]; G2 3 mg/kg ip, 2× wk",−34%
same,splenomegaly decrease vs vehicle at EOS,[2]; G2: 3 mg/kg ip twice weekly,34%
same,spleen mass compared to once-a-week bortezomib,[2]; p<0.05,reduced spleen mass significantly
same,"ANA Smith Ag AUC, percent change vs vehicle","[3]; G1 3 mg/kg ip, 1× wk",−88%
same,"ANA chromatin AUC, percent change vs vehicle","[3]; G1 3 mg/kg ip, 1× wk",−63%
same,"ANA dsDNA AUC, percent change vs vehicle","[3]; G1 3 mg/kg ip, 1× wk",−21%
same,"ANA Smith Ag AUC, percent change vs vehicle","[3]; G2 3 mg/kg ip, 2× wk",8%
same,"ANA chromatin AUC, percent change vs vehicle","[3]; G2 3 mg/kg ip, 2× wk",−79%
same,"ANA dsDNA AUC, percent change vs vehicle","[3]; G2 3 mg/kg ip, 2× wk",−68%
same,serum anti-dsDNA Ab decrease vs vehicle,[3]; once weekly COMPOUND A,21%
same,serum anti-Smith Ag Ab decrease vs vehicle,[3]; once weekly COMPOUND A (3 mg/kg ip),88%
same,serum anti-chromatin Ab decrease vs vehicle,[3]; twice weekly (3 mg/kg ip),79%
same,serum anti-dsDNA Ab decrease vs vehicle,[3]; twice weekly COMPOUND A,68%
same,serum anti-chromatin Ab decrease vs vehicle,[3]; weekly (3 mg/kg ip),63%
